# Measurements taken from patent publication US20120003661A1, “METHODS AND DEVICES FOR THE SELECTIVE DETECTION OF MICROORGANISMS” (C3 JIAN, INC., priority 2010, published 2012).
# Entries after “also recorded” stand apart in the source; their conditions may differ.
# System: bacteria, fungi, and/or yeasts
# Type: binding
# Conditions: microorganism(s) listed as target(s) of the targeting peptide; wrapped target lists given cell by cell
row,Substance,Target(s)
1,1T-258 (TINIDDKVLDYLKKINSKAITIDLIGCAS),"A. naeslundii, F. nucleatum, P. gingivalis,; also recorded: T. denticola, S. mitis,; also recorded: S. mutans, S. oralis"
2,1T-287 (KGYPLPFQYRLNNH),"P. gingivalis, T. denticola, S. gordonii,; also recorded: S. mitis, S. mutans, S. oralis,; also recorded: S. salivarious, S. sanguinis"
3,PF-152 (VGYFIWKDSHSRKG),"S. epidermidis, C. albicans,; also recorded: MRSA, E. faecalis, C. jeikeium"
4,TT-310 (TKLKKNNKLLSAKKENTLHTKDK),"F. nucleatum,"
5,PF-002 (NDDAQ),"yeast and hyphal forms; also recorded: S. epidermidis, P. mirabilis, C. albicans,; also recorded: C. jeikeium, C. jejuni"
6,PF-024 (DLRKAK),"C. albicans hyphae; also recorded: M. luteus, C. albicans, MRSA, E. faecalis,; also recorded: C. jeikeium"
7,PF-007 (MGIIAGIIKVIKSLIEQFTGK),"S. epidermidis, M. luteus, E. coli,; also recorded: P. aeruginosa, C. albicans,; also recorded: MRSA, S. pneumoniae, E. faecalis,; also recorded: C. jeikeium"
8,PF-132 (RPGDGAAEQGRSR),"S. epidermidis, C. jeikeium"
9,PF-015 (SIDKRNLYNLKYYE),"E. faecalis, C. jeikeium"
10,PF-073 (CPSVTMDACALLQKFDFCNNISHFRHFFAIKQPIER),"S. epidermidis, M. luteus, P. aeruginosa,; also recorded: C. albicans, MRSA,; also recorded: S. pneumoniae, E. faecalis"
11,PF-026 (SIHFIN),"S. epidermidis, M. luteus, P. mirabilis,; also recorded: C. albicans, MRSA, E. faecalis,; also recorded: C. jeikeium"
12,PF-155 (GRYGDDSKERQGRAQ),C. jeikeium
13,PF-030 (MTCHQAPTTTHQSNMA),"yeast and hyphal forms; also recorded: S. epidermidis, M. luteus, P. mirabilis,; also recorded: E. coli, P. aeruginosa,; also recorded: C. albicans, MRSA, S. pneumoniae,; also recorded: E. faecalis, C. jeikeium,; also recorded: C. jejuni"
14,PF-140 (FHRRVIRASEWALTTRSFSTPLRSAAR),"S. epidermidis, M. luteus, P. mirabilis,; also recorded: E. coli, P. aeruginosa,; also recorded: C. albicans, MRSA, S. pneumoniae,; also recorded: E. faecalis, C. jeikeium,; also recorded: C. jejuni, M. smegmatis"
15,TT-308 (GLVIIPNLIALIILFSQVRQQTKDYFSNPKLSSR),F. nucleatum
16,TT-307 (NGDKKAKEELDKWDEVIKELNIQF),F. nucleatum
17,PF-036 (ILNRLSRIVSNEVTSLIYSLK),"S. epidermidis, M. luteus, P. mirabilis,; also recorded: E. coli, C. albicans,; also recorded: MRSA, S. pneumoniae, C. jejuni"
18,PF-029 (NSTNE),"S. epidermidis, M. luteus, C. albicans,; also recorded: C. jejuni"
19,PF-069 (FDPVPLKKDKSASKHSHKHNH),"E. faecalis, C. jejuni"
20,PF-037 (MTKKRRYDTTEFGLAHSMTAKITLHQALYK),"S. epidermidis, M. luteus, P. aeruginosa,; also recorded: C. albicans, MRSA,; also recorded: S. pneumoniae, E. faecalis, C. jeikeium"
21,PF-012 (WRGPNTEAGGKSANNIVQVGGAPT),"S. epidermidis, M. luteus, P. mirabilis,; also recorded: E. coli, P. aeruginosa,; also recorded: MRSA, S. pneumoniae, C. jeikeium,; also recorded: C. jejuni"
22,1T-279 (FVLRTKHCFY),"A. naeslundii, F. nucleatum, P. gingivalis,; also recorded: S. gordonii, S. mitis,; also recorded: S. mutans, S. oralis, S. salivarious,; also recorded: S. sanguinis"
23,PF-097 (QPTQGEQGTRPRRPTPMRGLLI),C. jeikeium
24,PF-052 (QELINEAVNLLVKSK),"S. epidermidis, M. luteus, E. coli,; also recorded: MRSA, E. faecalis, C. jeikeium,; also recorded: C. jejuni"
25,PF-018 (YYKTYFKEV),"E. coli, C. jeikeium"
26,PF-165 (GPVSVVASLRRGTTVQRHSQNNHNKGKP),"MRSA, C. jejuni"
27,1T-262 (LSLPLIVLTKSI),"A. naeslundii, F. nucleatum, P. gingivalis,; also recorded: S. epidermidis, S. gordonii,; also recorded: S. mitis, S. mutans, S. oralis,; also recorded: S. salivarious, S. sanguinis"

# Same assay, conditions: microorganism(s) that the targeting peptide binds, as listed in Table 2
row,Substance,Target(s)
1,PF-790 (PAGPDHLDQRDHR),Mycobacteria spp.
2,PF-C160 (AASGFTYCASNGVWHPY),F. nucleatum
3,PF-C281 (KKEKLLTAIRLQHRAEIRGYFTIFFLFFRI),"A. naeslundii, F. nucleatum, P. gingivalis,; also recorded: S. mutans, T. denticola"
4,PF-S015 (IENLERGARRPP),"S. epidermidis, MRSA, C. jeikeium"
5,PF-C052 (SRFRNGV),"A. naeslundii, F. nucleatum, S. mutans"
6,PF-C194 (NTNDLLQAFELMGLGMAGVFIVLGILYIVAELLIKIFPVNN),"A. naeslundii, F. nucleatum, P. gingivalis,; also recorded: S. mutans, T. denticola"
7,PF-786 (LSERERRRLKRGII),Mycobacteria spp.
8,PF-791 (IFLTTQNTDYSEHNAA),S. mutans
9,PF-C145 (YGKESDP),"A. naeslundii, F. nucleatum, P. gingivalis,; also recorded: S. mutans, T. denticola"
10,PF-C063 (SHFRKGD),"A. naeslundii, F. nucleatum, S. mutans"
11,PF-C131 (QWIVAKREIRMHIYCHISVIHVIIFFG),"A. naeslundii, F. nucleatum, P. gingivalis,; also recorded: S. mutans"

# Same assay, conditions: microorganism(s) the targeting peptide binds, as listed in Table 2
row,Substance,Target(s)
1,1T-11 (RISE),"S. mutans, S. epidermidis, P. aeruginosa"
2,1T-142 (FTQGIKRIVLKRLKED),"A. naeslundii, F. nucleatum, P. gingivalis,; also recorded: T. denticola, S. gordonii,; also recorded: S. mitis, S. mutans, S. oralis,; also recorded: S. salivarious, S. sanguinis"
3,1T-51 (GKPKRMPAEFIDGYGQALLAGA),"S. aureus, P. aeruginosa"
4,1T-198 (MPVSKKRYMLSSAYATALGICYGQVATDEKESEITAIPDLLDYLSVEEYLL),"P. gingivalis, S. epidermidis, S. gordonii,; also recorded: S. mitis, S. mutans, S. oralis,; also recorded: S. sanguinis"
5,1T-157 (RRFRKTTENREKSKNKKAVLGLSTTSTASY),"A. naeslundii, F. nucleatum, P. gingivalis,; also recorded: T. denticola, S. gordonii,; also recorded: S. mitis, S. mutans, S. oralis,; also recorded: S. salivarious, S. sanguinis"
6,1T-154 (YFSFLEIVGMARR),P. gingivalis
7,1T-177 (GTNVPTQILGYSREERFDYEPAPEQR),"P. gingivalis, S. gordonii, S. mitis,; also recorded: S. mutans, S. oralis, S. salivarious,; also recorded: S. sanguinis"
8,1T-137 (PLNFYRAVKENRLPLSEKNINDFTNIKLKVSPKLINLLQESSIFYNFSPKKRNTN),"A. naeslundii, F. nucleatum, P. gingivalis,; also recorded: S. epidermidis, S. gordonii,; also recorded: S. mitis, S. mutans, S. oralis,; also recorded: S. salivarious, S. sanguinis"
9,1T-228 (IFKLFEEHLLYLLDAFYYSKIFRRLKQGLYRRKEQPYTQDLFRM),"A. naeslundii, F. nucleatum, P. gingivalis,; also recorded: S. epidermidis, S. gordonii,; also recorded: S. mitis, S. mutans, S. oralis,; also recorded: S. salivarious, S. sanguinis"
10,1T-114 (RQAPGPGLVTITAACSAPGSRSR),"A. naeslundii, P. gingivalis, S. epidermidis,; also recorded: S. gordonii, S. mitis,; also recorded: S. mutans, S. oralis, S. sanguinis"
11,1T-100 (LDPLEPRIAPPGDRSHQGAPACHRDPLRGRSARDAER),"S. gordonii, S. mitis, S. mutans"
12,1T-50 (HSDEPIPNILFKSDSVH),P. aeruginosa
13,1T-44 (DPALADFAAGMRAQVRT),"S. mutans, S. aureus, S. epidermidis,; also recorded: C. jeikeium, C. striatum,; also recorded: P. aeruginosa"
14,1T-80 (GGNLGPGFGVIIP),S. pneumoniae
15,1T-164 (KKSHSQGKRKLKDLNSAYKIDNQLHYALR),"A. naeslundii, F. nucleatum, P. gingivalis,; also recorded: S. epidermidis, S. gordonii,; also recorded: S. mitis, S. mutans, S. oralis,; also recorded: S. salivarious, S. sanguinis"
16,1T-110 (LAAKTAVCVGRAFM),"A. naeslundii, P. gingivalis, S. epidermidis,; also recorded: S. gordonii, S. mitis,; also recorded: S. mutans, S. oralis, S. sanguinis"

row,Substance,Target(s)
1,1T-73 (GWWEELLHETILSKFKITKALELPIQL),S. pneumoniae
2,1T-178 (LLASHPERLSLGVFFVYRVLHLLLENT),"A. naeslundii, F. nucleatum, P. gingivalis,; also recorded: S. epidermidis, S. gordonii,; also recorded: S. mitis, S. mutans, S. oralis,; also recorded: S. salivarious, S. sanguinis"
3,1T-140 (IKGTIAFVGEDYVEIRVDKGVKLTFRKSAIANVINNNQQ),"A. naeslundii, F. nucleatum, P. gingivalis,; also recorded: S. epidermidis, S. gordonii,; also recorded: S. mitis, S. mutans, S. oralis,; also recorded: S. salivarious, S. sanguinis"
4,1T-167 (SRMSEHSPAGLVFEVGPMDKGSFIILDSYHPTVKK),"A. naeslundii, F. nucleatum, P. gingivalis,; also recorded: S. epidermidis, S. gordonii,; also recorded: S. mitis, S. mutans, S. oralis,; also recorded: S. salivarious, S. sanguinis"
5,1T-141 (KKFIILLFILVQGLIFSATKTLSDIIAL),"F. nucleatum, P. gingivalis, S. epidermidis,; also recorded: S. gordonii, S. mitis,; also recorded: S. mutans, S. oralis, S. sanguinis"
6,1T-92 (GQDEGQRRAGVGEGQGVDG),"S. mitis, S. mutans"
7,1T-52 (DEYPAKLPLSDKGATEPRRH),"S. aureus, C. xerosis, P. aeruginosa"
8,1T-33 (VRTLTILVIFIFNYLKSISYKLKQPFENNLAQSMISI),"S. aureus, S. epidermidis, C. jeikeium,; also recorded: C. xerosis, C. striatum,; also recorded: P. aeruginosa"
9,1T-75 (GVARGLQLGIKTRTQWGAATGAA),S. pneumoniae
10,1T-90 (RNVIGQVL),"S. gordonii, S. mitis, S. mutans,; also recorded: S. oralis, S. sanguinis"
11,1T-112 (SDNDGKLILGTSQ),S. gordonii
12,1T-54 (RWVSCNPSWRIQ),"S. epidermidis, C. xerosis, C. striatum,; also recorded: P. aeruginosa"
13,1T-184 (ALLVLNLLLMQFFFGKNM),"A. naeslundii, F. nucleatum, P. gingivalis,; also recorded: T. denticola, S. gordonii,; also recorded: S. mitis, S. mutans, S. oralis,; also recorded: S. salivarious, S. sanguinis"
14,1T-131 (DEVWKMLGI),"A. naeslundii, F. nucleatum, P. gingivalis,; also recorded: T. denticola, S. gordonii,; also recorded: S. mitis, S. mutans, S. oralis,; also recorded: S. salivarious, S. sanguinis"
15,1T-18 (YSKTLHFAD),"S. aureus, S. epidermidis, C. striatum,; also recorded: P. aeruginosa"
